Results from patent publication US9394520B2, “Expansion of hematopoietic stem cells” (University of Rochester, priority 2006, dated 2016).
Entries after “also recorded” stand apart in the source; their conditions may differ.

Tests used:
Jagged1 [1] = test: Jagged1 mRNA by real time RT-PCR in UMR106 cells; type: cell-based
Procedure: UMR 106 cells were serum starved for 24 hours and then treated with a single dose of vehicle (controls) or PGE2 at a concentration of 10^-7 M. RNA was collected from both control and treated samples to assess the fold change in Jagged1 mRNA by real time RT-PCR analysis corrected for by beta-actin. FIG. 1B is a Western blot showing total protein that was collected from both control and treated samples exposed to Jagged1 antibody, C20. Positive control (+ctr) was provided by HS27a cells, a human stromal cell line with high levels of Jagged1 protein, while HS5 cells from a human stromal cell line with minimal Jagged1 levels were used as a negative control. […] UMR106 cells were serum starved for 24 hours. They were pre-treated with H89 for 30 minutes followed by a single dose of PGE2 at 10^-7 M or vehicle. RNA was collected from both control and treated samples to assess the fold change in Jagged1 RNA by real time RT-PCR analysis corrected for by β-actin. […] UMR106 cells were serum starved for 24 hours. […] Total protein was collected from both PGE2 and vehicle treated samples for Western blot analysis with Jagged1 antibody C-20. UMR106 cells were grown in DMEM supplemented with 1.5 g/l sodium bicarbonate, 10% FBS, penicillin (100 U/ml), streptomycin (100 U/ml). After three days of growth the cells were 80% confluent and media was replaced with serum-free media. After 24 hr in serum-free media, PGE2 was added in noted concentrations. UMR 106 cells were treated with the Protein Kinase A (PKA) inhibitors H89 (0.5 hr prior to PGE2 treatment), and myristoylated PKI (0.5 hr prior to PGE2 treatment). […] At the designated times, total RNA and protein were harvested. Total RNA was extracted and analyzed by real time RT-PCR, normalizing for β-actin expression and t=0. Total protein was analyzed by Western blots performed using the […] system (Invitrogen, Carlsbad, Calif.). Blots were probed with Jag1 c-20 antibody (Santa Cruz Biotechnology, Inc., Santa Cruz, Calif.), and the loading control was B-actin.

Jagged1 [2] = test: Jagged1 protein by Western blot in UMR106 cells; type: cell-based; details: UMR106 cells, PKI 200 μg/ml pre-treatment, then PGE2 10^−7 M
Procedure: UMR 106 cells were serum starved for 24 hours and then treated with a single dose of vehicle (controls) or PGE2 at a concentration of 10^-7 M. RNA was collected from both control and treated samples to assess the fold change in Jagged1 mRNA by real time RT-PCR analysis corrected for by beta-actin. FIG. 1B is a Western blot showing total protein that was collected from both control and treated samples exposed to Jagged1 antibody, C20. Positive control (+ctr) was provided by HS27a cells, a human stromal cell line with high levels of Jagged1 protein, while HS5 cells from a human stromal cell line with minimal Jagged1 levels were used as a negative control. FIG. 2A is a graph showing that inhibition of PKA blocks PGE2-dependent increase of Jagged1 in UMR 106 cells. UMR106 cells were serum starved for 24 hours. They were pre-treated with H89 for 30 minutes followed by a single dose of PGE2 at 10^-7 M or vehicle. RNA was collected from both control and treated samples to assess the fold change in Jagged1 RNA by real time RT-PCR analysis corrected for by β-actin. […] UMR106 cells were serum starved for 24 hours. […] Total RNA was extracted and analyzed by real time RT-PCR, normalizing for β-actin expression and t=0. Total protein was analyzed by Western blots performed using the […] system (Invitrogen, Carlsbad, Calif.). […]

O=C(O)CC/C=C\CC[C@H]1[C@H](N2CCOCC2)C(=O)C[C@H]1OCc1ccc(-c2ccccc2)cc1 [AH23848]
PGE2-induced expression of Jagged1 (Jagged1 [1]; osteoblastic cells pretreated 30 minutes with 30 μM AH23848, then PGE2): did not inhibit

CCCC1([C@H](O)C/C=C/[C@H]2[C@H](O)CC(=O)[C@@H]2CCCCCCC(=O)OC)CCC1 [Butaprost, butaprost]
PGE2-induced Jagged1 expression (Jagged1 [1]; UMR 106 cells, butaprost 10 μM): inhibited

O=S(=O)(NCCNC/C=C/c1ccc(Br)cc1)c1cccc2cnccc12 [H89]
PGE2-dependent Jagged1 mRNA increase in presence of PKA inhibitor (Jagged1 [1]; UMR106 cells, H89 pre-treatment 30 minutes, then PGE2 10^−7 M): blocked; also recorded: inhibited

CCCC(=O)Nc1ncnc2c1ncn2[C@@H]1O[C@@H]2COP(=O)(O)O[C@H]2[C@H]1OC(=O)CCC [dibutyryl-cAMP, n6 2′-0-dibutyryladenosine-3′, 5′-cyclic monophpsphate]
Jagged1 increase by cAMP analogs that activate PKA (Jagged1 [1]; UMR106 cells): sufficient to increase Jagged1

myristoylated PKA Inhibitory Peptide (14-22) [PKI]
PGE2-dependent Jagged1 protein increase in presence of PKA inhibitor (Jagged1 [2]): blocked; also recorded: inhibited
